Legend:
SMN Tudor domain = SMN Tudor domain (Homo sapiens, UniProt Q16637); assay: AlphaScreen, SMN Tudor domain / sDMA-peptide interaction
Description: To establish an AlphaScreen[50], we coupled donor beads to purified SMNDC1’s (or SMN’s) Tudor domain via a His-Tag and acceptor beads to a biotinylated peptide corresponding to the C-terminal region of the Small nuclear ribonucleoprotein Sm D3 containing four sDMAs (Fig. 4a). […] To identify ideal concentrations for screening, we performed a cross-titration of Tudor domains and binding peptides (Supplementary Fig. 3b).
The AlphaScreen was conducted in 20 mM sodium phosphate pH 6.5, 50 mM NaCl, Tween 0.01%, BSA 0.1%. Protein concentration was optimized for each batch of purified protein. Optimal concentration was chosen at the lowest concentration with ~80% of maximum signal. […] In the first step, 10 µl of the protein solution containing either SMNDC1’s or SMN’s Tudor domain coupled to a 6xHis-Tag were distributed to 384-well plates pre-spotted with compounds and controls, shaken and incubated for 30 min at RT. Afterwards, 10 µl of peptide solution was added to each well and incubated for 1 h at RT. Finally, 5 µl of a solution containing both Streptavidin Donor and nickel chelate (Ni-NTA) Acceptor beads was added and again incubated for 1 h at RT.

[1] = test system: SRRM2-RFP intron 9-10, αTC1; assay: Live imaging of SRRM2-RFP (nuclear speckles); format: cell-based, mouse
Description: (§1) Cell lines with fluorescent tags in the endogenous intron loci of different genes were generated as described in Serebrenik et al., and Reicher et al.[39],[74]. Cells were transiently transfected using Avalanche-Everyday Transfection Reagent with three plasmids in parallel: (1) the donor plasmid containing the artificial intron with splice acceptor and splice donor site, the fluorescent tag GFP or RFP, and a possible correction for the frame of the targeted intron, (2) a pX330 backbone containing Cas9 and the gRNA against the donor plasmid, and (3) a plasmid expressing the gRNA against the target intron (see table below). After 3–5 days, GFP- and/or RFP-positive cells were sorted on a SONY SH800 Cell Sorter to get fluorescent single cell clones. Clones were validated for the correct integration of the intron-tag via comparison of live cell images to publicly available or in-house IF images, genomic DNA PCR amplification of the respective loci, and western blots with antibodies against the target protein and/or the fluorescent tag.
(§2) Cells were imaged on a PerkinElmer Opera Phenix automated microscope with 500 ms exposure time in either GFP or RFP channel, or on a Zeiss LSM 980 microscope. For condition-independent identification nuclear markers such as Hoechst or DRAQ5^TM were used.
Images were analyzed using the high-content image acquisition and analysis software Harmony® 4.9 developed by PerkinElmer. First, nuclei were identified in the channel of the nuclear marker (DAPI/ Hoechst/ DRAQ5^TM) (with Method C, Common Threshold 0.75, Area > 10 µm^2). After the identification of nuclei, their corresponding cytoplasm was also identified using the respective nucleic acid marker (with Method A, Individual Threshold 0.15). Even though the highest staining of these nuclear markers is obviously detected in the nucleus they still produce a significant staining of the cytoplasm above background. After defining the respective cell areas, mean intensity in the different channels was measured. […]

APEX2-SMNDC1^FL = target: T1, APEX2-SMNDC1^FL (Homo sapiens, UniProt O75940); assay: APEX2-SMNDC1^FL proximity labeling, biotin enrichment and mass spectrometry; format: cell-based, mouse; conditions: compound-treated over DMSO; adjusted p-value<0.05, |log2FC|≥2
T1 construct: In addition to full-length SMNDC1 (APEX2-SMNDC1^FL); expressed in transfected cells
T1 sequence (O75940 1-238): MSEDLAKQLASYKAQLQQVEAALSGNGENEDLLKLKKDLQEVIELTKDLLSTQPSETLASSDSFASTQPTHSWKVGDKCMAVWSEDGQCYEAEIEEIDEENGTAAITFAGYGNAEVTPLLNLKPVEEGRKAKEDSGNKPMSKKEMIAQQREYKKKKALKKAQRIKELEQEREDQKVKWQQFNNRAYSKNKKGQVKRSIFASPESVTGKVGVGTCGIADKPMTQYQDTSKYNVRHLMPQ
Description: Proximity labeling with APEX2 was done following the described protocol for imaging and proteomic analysis. Cell lines with a stable expression of APEX2-fusion proteins were generated using lentiviral transduction of plasmids generated with Gateway cloning of the respective fusion protein into pLEX305. pLEX_305 was a gift from David Root (Addgene plasmid # 41390; http://n2t.net/addgene:41390; RRID:Addgene_41390). The APEX2 sequence was amplified from APEX2-csGBP which was a gift from Rob Parton (Addgene plasmid # 108874; http://n2t.net/addgene:108874; RRID:Addgene_108874). Briefly, cells were incubated with 0.5 mM biotin-phenol for 30 min, after which 1 mM H2O2 was added for exactly 1 min. Afterwards the labeling reaction was quenched by 3 quick washes with Quenching solution (10 mM sodium ascorbate, 10 mM sodium azide, 5 mM Trolox in PBS). […]
After proximity labeling, cells (~10 Mio. cells, 15 cm dish) were harvested, washed 2x in PBS, snap frozen and stored at −80 °C. […] After quantification of protein amounts by Pierce™ 660 nm Protein Assay, samples were normalized to 500 µg total protein input in a final volume of 300 µl lysis buffer. […]
Following data acquisition, acquired raw data files were processed using the Proteome Discoverer v.2.4.1.15 platform, choosing a TMT16plex quantification method. […]

SMNDC1-GFP αTC1 clones = assay: Live imaging of endogenously tagged SMNDC1-GFP; format: cell-based, mouse; conditions: 50 µM, 12–16 h
Description: as §1, §2
Images were analyzed using the high-content image acquisition and analysis software Harmony® 4.9 developed by PerkinElmer. First, nuclei were identified in the channel of the nuclear marker (DAPI/ Hoechst/ DRAQ5^TM) (with Method C, Common Threshold 0.75, Area > 10 µm^2). After the identification of nuclei, their corresponding cytoplasm was also identified using the respective nucleic acid marker (with Method A, Individual Threshold 0.15). Even though the highest staining of these nuclear markers is obviously detected in the nucleus they still produce a significant staining of the cytoplasm above background. After defining the respective cell areas, mean intensity in the different channels was measured. Finally, spots were identified with the according “Spots” algorithm (with Method A, Relative Spot Intensity > 0.053, Splitting Sensitivity: 1.0).

SMN Tudor domain, sequence (Q16637 84-147): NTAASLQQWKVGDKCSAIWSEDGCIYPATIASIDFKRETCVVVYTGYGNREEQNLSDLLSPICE

## CN(C)S(=O)(=O)c1ccc(C(=O)Nc2nc(-c3ccccn3)cs2)cc1 [compound 1]
SMN Tudor domain
  IC50: 880 nM
[1]
  SRRM2 and general organization of nuclear speckles: affected
  SRRM2 spots: appeared to dissolve into the nucleoplasm
  overall SRRM2 intensity: slightly reduced
APEX2-SMNDC1^FL
  proteins significantly depleted: 126 proteins
  proteins significantly enriched: 6 proteins
SMNDC1-GFP αTC1 clones
  SMNDC1-GFP spots within the nucleus: less spots were detected within the nucleus
  SMNDC1 within the nucleus (nuclear SMNDC1-GFP): loss of SMNDC1 within the nucleus

Reference: publication PMC10432564, “Pharmacological perturbation of the phase-separating protein SMNDC1” (Nature Communications, 2023)
